Patent US4742049A, “Semisynthetic erythromycin antibiotics” (Abbott Laboratories, priority 1986, dated 1988)
≈ marks a conversion by molar mass, not a printed value. Read-outs that look alike come from different tables or passages of the source.

Legend:
[1] = system: Providencia stuartii; assay: antimicrobial spectrum, agar dilution MIC; format: cell-based; conditions: strain CMX 640, BHI agar, 20-24 hours
Summary of the method: (§1)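 Endpoint: lowest concentration yielding no growth, slight haze or few isolated colonies on the inoculum spot, judged against growth control. Plates contained BHI agar with graded compound levels, were replicator-inoculated, and were held at 35°-37° C. for 20-24 hours.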

[2] = system: Pseudomonas aeruginosa; assay: antimicrobial spectrum, agar dilution MIC; format: cell-based; conditions: Pseudomonas aeruginosa, BHI agar, 20-24 hours
Summary of the method: as §1

[3] = system: Staph. aureus; assay: antimicrobial spectrum, agar dilution MIC; format: cell-based; conditions: Staphylococcus aureus, BHI agar, 20-24 hours
Summary of the method: as §1

[4] = system: Staph. epidermidis; assay: antimicrobial spectrum, agar dilution MIC; format: cell-based; conditions: Staphylococcus epidermidis, BHI agar, 20-24 hours
Summary of the method: as §1

[5] = system: Strep. agalactiae; assay: antimicrobial spectrum, agar dilution MIC; format: cell-based; conditions: Streptococcus agalactiae, BHI agar, 20-24 hours
Summary of the method: as §1

[6] = system: Strep. bovis; assay: antimicrobial spectrum, agar dilution MIC; format: cell-based; conditions: Streptococcus equinus, strain A5169; BHI agar, 20-24 hours
Summary of the method: as §1

[7] = system: Strep. faecalis; assay: antimicrobial spectrum, agar dilution MIC; format: cell-based; conditions: Enterococcus faecalis, BHI agar, 20-24 hours
Summary of the method: as §1

[8] = system: Strep. faecium; assay: antimicrobial spectrum, agar dilution MIC; format: cell-based; conditions: Enterococcus faecium, ATCC8043, strain ATCC 8043; BHI agar, 20-24 hours
Summary of the method: as §1

[9] = system: Strep. pneumoniae; assay: antimicrobial spectrum, agar dilution MIC; format: cell-based; conditions: Streptococcus pneumoniae
Summary of the method: as §1

[10] = system: Strep. pyogenes; assay: antimicrobial spectrum, agar dilution MIC; format: cell-based; conditions: Streptococcus pyogenes, BHI agar, 20-24 hours
Summary of the method: as §1

[11] = system: E. coli; assay: antimicrobial spectrum, agar dilution MIC; format: cell-based; conditions: Escherichia coli, BHI agar, 20-24 hours
[12] = system: Micrococcus luteus; assay: antimicrobial spectrum, agar dilution MIC; format: cell-based; conditions: 20-24 hours
[13] = system: Lactobacillus Casei; assay: antimicrobial spectrum, agar dilution MIC; format: cell-based; conditions: Lacticaseibacillus casei, ATCC7469, strain ATCC 7469; BHI agar, 20-24 hours
[14] = system: Ent. aerogenes; assay: antimicrobial spectrum, agar dilution MIC; format: cell-based; conditions: Klebsiella aerogenes, ATCC10348, strain ATCC 10348; BHI agar, 20-24 hours
[15] = system: Klebsiella pneumoniae; assay: antimicrobial spectrum, agar dilution MIC; format: cell-based; conditions: strain 8045, BHI agar, 20-24 hours
[16] = system: Pseudomonas cepacia; assay: antimicrobial spectrum, agar dilution MIC; format: cell-based; conditions: Burkholderia cepacia, strain 2961; BHI agar, 20-24 hours; read-out: MIC
Description: Erythromycin A was used for this purpose.
After incubation, each disk is read.

[17] = system: Acinetobacter SP; assay: antimicrobial spectrum, agar dilution MIC; format: cell-based; conditions: strain CMX 669, BHI agar, 20-24 hours
[18] = system: Staph. saprophyticus; assay: microbe, parasite or virus in culture; conditions: Staphylococcus saprophyticus, ATCC15305
Description: Twelve petri dishes containing successive aqueous dilutions of the test compound mixed with 10 ml of sterilized Brain Heart Infusion agar (Difco 0418-01-5) are prepared. Each plate is inoculated with 1:100 (or 1:10 for slow-growing strains, primarily Micrococcus and Streptococcus) dilutions of up to 32 different microorganisms, using a Steers replicator block. The inoculated plates are incubated at 35°-37° C. for 20-24 hours. In addition, a control plate, using BHI agar containing no test compound, is prepared and incubated at the beginning and end of each test.
An additional plate containing a compound having known susceptibility patterns for the organisms being tested and belonging to the same antibiotic class as the test compound is also prepared and incubated as a further control, as well as to provide test-to-test comparability.
After incubation, each disk is read. The MIC is defined as the lowest concentration of drug yielding no growth, a slight haze, or sparsely isolated colonies on the inoculum spot as compared to the growth control.

[19] = system: gut contractions (stomach, duodenum, jejunum); conditions: dog, in vivo, iv, 4 mg/kg
Description: Compounds of this invention have been tested for gastrointestinal stimulating activity in a dog model at 4 mg/kg intravenously. Contractions in the gut were recorded with surgically implanted strain gauges. […] Ratios were calculated for the stomach, duodenum and jejunum, and a final arithmetic mean index was calculated and reported in Table 1.

[20] = system: Staph. aureus NCTC 10649; assay: acute mouse protection test; conditions: for ED50: Staphylococcus aureus, NCTC10649, in Mus musculus, 168 h, dosed 1 and 5 hours post-infection, observed 7 days; for # Died: ten mice
Description: The acute mouse protection test is conducted on ten mice with each of three levels of drug.
The acute mouse protection test is conducted on female, Swiss albino mice, 18-20 grams in weight. The mice are injected intraperitoneally with an 18-hour culture of the indicated test organism diluted sufficiently to provide the desired LD50 value. To check the potency of the inoculum, a titration of the indicated test organism is carried out in control animals. […] The ED50 values are calculated using the mortality data collected.

Work on `CC[C@H]1OC(=O)[C@H](C)[C@@H](O[C@H]2C[C@@](C)(OC)[C@@H](O)[C@H](C)O2)[C@H](C)[C@@H](O[C@@H]2O[C@H](C)C[C@H](N(C)C)[C@H]2O)[C@](C)(OC)C[C@@H](C)C(=O)[C@H](C)[C@H]2NC(=O)O[C@@]21C` [Example 2, 11-deoxy-6-O-methyl erythromycin A 11,12 cyclic carbamate] yielded an MIC [1] of over 100 µg/mL, an MIC ([2]; strain 5007) of 100 µg/mL (≈ 129 µM) and an MIC ([2]; strain BMH10) of 50 µg/mL (≈ 64.7 µM). For the same compound, the MIC ([2]; strain K799/61) was 1.56 µg/mL (≈ 2.02 µM), the MIC ([2]; strain K799/WT) was 50 µg/mL (≈ 64.7 µM) and the MIC ([3]; ATCC6538P, strain ATCC 6538P) was 0.1 µg/mL (≈ 0.129 µM). The MIC ([3]; ATCC25923, strain ATCC 25923) was 0.015 µg/mL (≈ 0.0194 µM), the MIC ([3]; NCTC10649, strain NCTC 10649, read-out: MIC) was 0.06 µg/mL (≈ 0.0776 µM) and the MIC ([3]; strain 45) was 0.1 µg/mL (≈ 0.129 µM). It also gave an MIC ([3]; strain 45 RAR 2) of 0.2 µg/mL (≈ 0.259 µM), an MIC ([3]; strain 642A) of 0.03 µg/mL (≈ 0.0388 µM) and an MIC ([3]; strain A5177) of 0.39 µg/mL (≈ 0.505 µM). The MIC ([3]; strain A-5278) was over 128 µg/mL, the MIC ([3]; strain CMX 686B) was 0.1 µg/mL (≈ 0.129 µM) and the MIC ([3]; strain CMX 705) was 0.015 µg/mL (≈ 0.0194 µM). It also gave an MIC ([3]; strain CMX 730A) of 0.015 µg/mL (≈ 0.0194 µM), an MIC ([3]; strain CMX 739A) of 0.015 µg/mL (≈ 0.0194 µM) and an MIC ([3]; strain GYR 1150) of 0.03 µg/mL (≈ 0.0388 µM). For the same compound, the MIC ([3]; strain GYR 1162) was 0.03 µg/mL (≈ 0.0388 µM), the MIC ([4]; strain 3519) was 0.05 µg/mL (≈ 0.0647 µM) and the MIC ([4]; strain 3519 RARI) was 0.05 µg/mL (≈ 0.0647 µM). It also gave an MIC ([4]; strain CMX 724G) of over 128 µg/mL, an MIC ([4]; strain CMX 728) of 0.03 µg/mL (≈ 0.0388 µM) and an MIC ([4]; strain CMX 729h) of over 128 µg/mL. For the same compound, the MIC ([4]; strain GYR 1151) was 0.03 µg/mL (≈ 0.0388 µM), the MIC ([5]; strain CMX 508) was 0.01 µg/mL (≈ 0.0129 µM) and the MIC ([5]; strain CMX 633) was 0.015 µg/mL (≈ 0.0194 µM). It also gave an MIC [6] of 0.02 µg/mL (≈ 0.0259 µM), an MIC ([7]; strain A-5168) of over 128 µg/mL and an MIC ([7]; strain CMX 663F) of 0.5 µg/mL (≈ 0.647 µM). The MIC ([7]; strain CMX 729G, read-out: MIC) was 0.12 µg/mL (≈ 0.155 µM), the MIC ([7]; strain CMX 736F, read-out: MIC) was 0.06 µg/mL (≈ 0.0776 µM) and the MIC ([7]; strain GYR 1164, read-out: MIC) was 0.12 µg/mL (≈ 0.155 µM). For the same compound, the MIC ([7]; strain GYR 1166, read-out: MIC) was 0.06 µg/mL (≈ 0.0776 µM), the MIC ([7]; strain GYR 1167, read-out: MIC) was 0.12 µg/mL (≈ 0.155 µM) and the MIC [8] was 0.05 µg/mL (≈ 0.0647 µM). The MIC [9] was 16 µg/mL (≈ 20.7 µM), the MIC ([9]; strain CMX 635, BHI agar, 20-24 hours) was 0.004 µg/mL (≈ 0.00517 µM) and the MIC ([9]; strain CMX 698, BHI agar, 20-24 hours) was 0.004 µg/mL (≈ 0.00517 µM). It also gave an MIC ([10]; strain 930) of over 100 µg/mL, an MIC ([10]; strain C203) of 0.004 µg/mL (≈ 0.00517 µM) and an MIC ([10]; strain EES61) of 0.05 µg/mL (≈ 0.0647 µM). For the same compound, the MIC ([10]; strain M79061-98, read-out: MIC) was 0.25 µg/mL (≈ 0.323 µM), the MIC ([10]; strain M79061-139) was 0.004 µg/mL (≈ 0.00517 µM) and the MIC ([10]; strain M79061-140) was 0.004 µg/mL (≈ 0.00517 µM). The MIC ([11]; strain DC-2) was 50 µg/mL (≈ 64.7 µM), the MIC ([11]; strain H560) was 3.1 µg/mL (≈ 4.01 µM) and the MIC ([11]; strain JUHL) was 50 µg/mL (≈ 64.7 µM). For the same compound, the MIC ([11]; strain KNK 437) was 25 µg/mL (≈ 32.3 µM), the MIC ([11]; strain SS) was 0.39 µg/mL (≈ 0.505 µM) and the MIC ([12]; strain 4698, BHI agar) was 0.39 µg/mL (≈ 0.505 µM). For the same compound, the MIC ([12]; strain 9341, BHI agar) was 0.05 µg/mL (≈ 0.0647 µM), the MIC [13] was 0.05 µg/mL (≈ 0.0647 µM) and the MIC [14] was 100 µg/mL (≈ 129 µM). For the same compound, the MIC [15] was 50 µg/mL (≈ 64.7 µM), the MIC [16] was 25 µg/mL (≈ 32.3 µM) and the MIC [17] was 6.2 µg/mL (≈ 8.02 µM). For the same compound, the MIC [18] was 0.03 µg/mL (≈ 0.0388 µM), the “Gastrointestinal Motility Index” value [19] was 1.18 and the ED50 ([20]; po, dosage medium Carboxymethylcellulose) was 45.2 mg/kg. The ED50 ([20]; po, dosage medium PBS) was 34.4 mg/kg, the ED50 ([20]; sc, subcutaneous, dosage medium Injectable solution) was 5 mg/kg and the “# Died” value ([20]; oral, Carboxymethylcellulose, 9.4 mg/kg) was 10. The “# Died” value ([20]; oral, Carboxymethylcellulose, 62.5 mg/kg) was 7, the “# Died” value ([20]; oral, Carboxymethylcellulose, 150.0 mg/kg) was 0 and the “# Died” value ([20]; oral, PBS, 9.4 mg/kg) was 10. For the same compound, the “# Died” value ([20]; oral, PBS, 62.5 mg/kg) was 7, the “# Died” value ([20]; oral, PBS, 150.0 mg/kg) was 0 and the “# Died” value ([20]; subcutaneous, Injectable solution, 2.5 mg/kg) was 9. For the same compound, the “# Died” value ([20]; subcutaneous, Injectable solution, 10.0 mg/kg) was 1 and the “# Died” value ([20]; subcutaneous, Injectable solution, 40.0 mg/kg) was 0.
